Source: US20150110865A1, “CNS STIMULANT AND OPIOID RECEPTOR ANTAGONIST COMBINATION AS A NON-ADDICTIVE, NON-AVERSIVE AND SYNERGISTIC ANTI-OBESITY TREATMENT” (FLORIDA STATE UNIVERSITY RESEARCH FOUNDATION, priority 2013, published 2015)

Tests used:
μ opioid receptor (MOPR) [1] = target: T1, μ opioid receptor (MOPR) (Mus musculus, UniProt P42866); assay type: biochemical; design: dose or concentration left out as unconfirmed; conditions: caudate-putamen membranes; FIG. 3
T1 construct: Caudate-putamen and nucleus accumbens are identified in the frozen slices based on anatomical landmarks and samples from these two brain regions are collected; from tissue; host or cells: mouse brain: caudate-putamen and nucleus accumbens membrane preparations
Experimental: Activity of the μ opioid receptor (MOPR) is assayed by using [35S]GTPγS binding on membrane preparations. The same mice that are used in the conditioned place preference assay are used for these assays Immediately upon completion of the behavioral assay, the mice are sacrificed by cervical dislocation and the brain is dissected rapidly. The brain is frozen in liquid nitrogen and 1.0 mm slices of the brain were prepared in the coronal plane using a tissue-slicing matrix (Model 15003; Ted Pella, Redding, Calif.). Caudate-putamen and nucleus accumbens are identified in the frozen slices based on anatomical landmarks and samples from these two brain regions are collected using a tissue punch. The samples are homogenized using teflon pestle in Eppendorf tubes (10 strokes) in 300 μl of homogenization buffer containing 25 mMTris/pH 7.4, 5 mMEDTA and 0.1 mMPMSF and kept on ice. Homogenate is diluted to 2.5 ml using the homogenization buffer and centrifuged at −350,000 g for 30 min. After washing 3 times with 50 mM Tris-HCl/pH 7.4, the pellets are re-suspended in 50 mM Tris-HCl/pH 7.4 containing 0.32 M sucrose, passed through a 26.5 G needle 3 times, frozen in dry ice/ethanol and stored in −80° C. until use.
(§1) Nonspecific binding is defined by incubation in the presence of 10 μM GTPγS. […] Radioactivity on filters is determined by liquid scintillation counting. […]

[2] = test system: prenatal nicotine exposure mouse model of ADHD; conditions: cited from earlier work
[3] = 0.75 mg/kg MPH administered to adult mice; cited from earlier work
C57/B6 mice = experiment: Conditioned place preference (CPP); assay type: in vivo, mouse; conditions: for time spent in drug-paired chamber, Test sessions compared to pre-conditioning sessions: FIG. 1; for CPP score compared to saline-treated group: FIG. 2; for time spent in drug-paired chamber, Test sessions compared to PC sessions: p>0.05, n=6; for CPP score compared to saline control group: p>0.05
Source text: C57/B6 mice are purchased from Charles River Laboratories. Only male mice are used.
A three-chamber place preference apparatus is used. The apparatus has two equally sized (16.8×12 cm) preference chambers connected by a central chamber (7.2×12 cm), and is outfitted with sliding guillotine-style doors between each chamber. Photobeams connected to a computer system can record animal location and time spent in that location. The central chamber has a gray colored smooth floor. The preference chamber is either white with a mesh floor or black with a bar floor. The CPP procedure included three phases: Pre-conditioning, conditioning and test phases.
The pre-conditioning phase is performed on day 1 (two sessions daily, AM and PM). In each pre-conditioning session, mice are initially placed in the central gray chamber for 2 min and then allowed free access to the white and black chambers for 20 min. The time spent in each chamber is recorded.
For the next phase in the assay, the conditioning phase, the non-preferred chamber (i.e. the chamber in which less time is spent) is designated as the drug-paired chamber and the preferred chamber (i.e. the chamber in which more time was spent) is designated as the vehicle-paired chamber.
The conditioning phase is carried out on each of days 2-6. There are two conditioning sessions daily, morning session between 8 and 10 AM and afternoon session between 2 and 4 PM. There is one session each for vehicle-paired (saline as vehicle) and drug-paired (MPH as drugs) conditions on each day of the conditioning phase. The mice are administered saline or drug (i.p.) in the saline- or drug-paired sessions, respectively and placed in the central gray chamber for 2 min (to isolate injection effect to the central chamber) and then confined to the vehicle-or-drug-paired chamber, respectively for 30 min. On the first day of the conditioning phase, the mouse receive saline during the morning session and the drug in the afternoon session. The next day, the order of treatments is reversed: drug in the morning session and saline in the afternoon session. These two paradigms are alternated for the remainder of the conditioning phase. This conditioning strategy is used for all the experiments except those using naltrexone.
Saline is administered on the first day and naltrexone (or naltrexone+MPH) is administered the following day. Administrations of saline and naltrexone are alternated for each of the next 9 days (total duration of conditioning is 10 days).
During the test phase, (one session on the day after the conditioning phase) the mice are placed in the central gray chamber for 2 min and then given free access to the drug- and saline-paired chambers for 20 min. The time spent in each chamber is recorded. The difference between time spent in the drug-paired chamber during the test phase and pre-conditioning phases was calculated as the CPP score. Saline and the drugs are administered intraperitoneally. All the behavioral analyses are performed during the light phase of the light-dark cycle.
Differences between two experimental groups are analyzed for statistical significance by using Student's t-test. Treatment effects on multiple groups are tested for significance by using one-way ANOVA and the differences among the groups are tested for significance by using Dunnett's multiple comparisons test.

μ opioid receptor (MOPR) [4] = experiment: MOPR activity by DAMGO-stimulated [35S]GTPγS binding in brain membranes of drug-treated mice after the CPP assay; assay type: in vivo, mouse; conditions: low dose MPH 0.75 mg/kg; either brain region; FIG. 4
Experimental: Activity of the μ opioid receptor (MOPR) is assayed by using [35S]GTPγS binding on membrane preparations. The same mice that are used in the conditioned place preference assay are used for these assays Immediately upon completion of the behavioral assay, the mice are sacrificed by cervical dislocation and the brain is dissected rapidly. The brain is frozen in liquid nitrogen and 1.0 mm slices of the brain were prepared in the coronal plane using a tissue-slicing matrix (Model 15003; Ted Pella, Redding, Calif.). Caudate-putamen and nucleus accumbens are identified in the frozen slices based on anatomical landmarks and samples from these two brain regions are collected using a tissue punch. The samples are homogenized using teflon pestle in Eppendorf tubes (10 strokes) in 300 μl of homogenization buffer containing 25 mMTris/pH 7.4, 5 mMEDTA and 0.1 mMPMSF and kept on ice. Homogenate is diluted to 2.5 ml using the homogenization buffer and centrifuged at −350,000 g for 30 min. […]
as §1
Differences between two experimental groups are analyzed for statistical significance by using Student's t-test. […]

[5] = naltrexone 5 mg/kg prior to MPH 7.5 mg/kg, FIG. 6
[6] = naltrexone 10 mg/kg prior to MPH 7.5 mg/kg, FIG. 6

T1 sequence (P42866 whole entry): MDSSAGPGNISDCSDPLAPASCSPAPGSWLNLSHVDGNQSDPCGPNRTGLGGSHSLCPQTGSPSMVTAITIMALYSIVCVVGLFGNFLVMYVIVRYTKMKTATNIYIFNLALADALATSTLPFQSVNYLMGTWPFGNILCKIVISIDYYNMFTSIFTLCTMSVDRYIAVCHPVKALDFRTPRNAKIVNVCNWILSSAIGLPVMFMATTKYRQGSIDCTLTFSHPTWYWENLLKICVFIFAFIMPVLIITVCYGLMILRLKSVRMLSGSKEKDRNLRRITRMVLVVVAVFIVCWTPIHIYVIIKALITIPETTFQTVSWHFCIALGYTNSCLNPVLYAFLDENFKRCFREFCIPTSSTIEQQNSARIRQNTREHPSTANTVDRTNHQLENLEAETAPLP

## C[C@@H](NC(=O)[C@@H](N)Cc1ccc(O)cc1)C(=O)NCC(=O)N(C)[C@@H](Cc1ccccc1)C(=O)NCCO [DAMGO]
μ opioid receptor (MOPR) [1]
  maximal [35S]GTPγS binding: 1.75 fold of the basal level

## COC(=O)C(c1ccccc1)C1CCCCN1 (centres unmarked) [MPH, methylphenidate]
[2]; 0.75 mg/kg methylphenidate
  effect on hyperactivity: reduce hyperactivity
[2]; ADHD mouse model
  time after administration at which hyperactivity started to decline: 2 h
[3]
  serum and brain concentrations of D-methylphenidate: equivalent to the levels seen in human subjects given oral therapeutic doses of MPH
C57/B6 mice; high-dose MPH 7.5 mg/kg i.p., t-test p=0.005, n=6/group
  time spent in drug-paired chamber, Test sessions compared to pre-conditioning sessions: significantly longer period of time in the drug-paired chamber
C57/B6 mice; high-dose MPH 7.5 mg/kg plus saline, naltrexone experiment, FIG. 5
  time spent in drug-paired chamber, Test sessions compared to pre-conditioning (PC) sessions: significantly longer period of time in the drug-paired chamber
C57/B6 mice; high-dose MPH 7.5 mg/kg, multiple comparisons test
  CPP score compared to saline-treated group: significant (p<0.05) effects
C57/B6 mice; high-dose MPH 7.5 mg/kg, naltrexone experiment, p<0.01, FIG. 6
  CPP score compared to saline control: significantly greater than that produced by the saline control
C57/B6 mice; low dose MPH 0.75 mg/kg i.p., t-test p>0.05
  time spent in drug-paired chamber, Test sessions compared to pre-conditioning sessions: do not show significant differences
C57/B6 mice; low dose MPH 0.75 mg/kg
  CPP score compared to saline-treated group: no significant difference
μ opioid receptor (MOPR) [4]
  MOPR activity compared to the saline group: no significant difference

## O=C1CC[C@@]2(O)[C@H]3Cc4ccc(O)c5c4[C@@]2(CCN3CC2CC2)[C@H]1O5 [naltrexone]
C57/B6 mice; naltrexone 1 mg/kg alone, FIG. 5
  time spent in drug-paired chamber, Test sessions compared to PC sessions: Neither saline alone nor naltrexone (1 or 10 mg/kg) alone produces significant changes
C57/B6 mice; naltrexone 1 mg/kg prior to MPH 7.5 mg/kg, FIG. 6
  CPP score compared to prior treatment with saline: significantly decrease the CPP score
C57/B6 mice; [5]
  CPP score compared to prior treatment with saline: significantly decrease the CPP score
  CPP score compared to saline control group: not significantly different
C57/B6 mice; naltrexone 10 mg/kg administered with 7.5 mg/kg methylphenidate
  abuse potential of methylphenidate: completely abolishes the abuse potential of methylphenidate
C57/B6 mice; naltrexone 10 mg/kg alone, FIG. 5
  time spent in drug-paired chamber, Test sessions compared to PC sessions: Neither saline alone nor naltrexone (1 or 10 mg/kg) alone produces significant changes
C57/B6 mice; [6]
  CPP score compared to prior treatment with saline: significantly decrease the CPP score
  CPP score compared to saline control group: not significantly different
C57/B6 mice; naltrexone 1, 5 or 10 mg/kg prior to MPH 7.5 mg/kg, FIG. 6
  dose dependence of the decrease in the CPP score: dose-dependent
